From paper PMC11587536 (Biochemistry, 2024) come the findings set out here.

The structures appear in SMILES notation.

This experiment addresses MoLOX (Pyricularia oryzae, UniProt G4NAP4).

MoLOX, sequence (G4NAP4 17-619 limits assumed): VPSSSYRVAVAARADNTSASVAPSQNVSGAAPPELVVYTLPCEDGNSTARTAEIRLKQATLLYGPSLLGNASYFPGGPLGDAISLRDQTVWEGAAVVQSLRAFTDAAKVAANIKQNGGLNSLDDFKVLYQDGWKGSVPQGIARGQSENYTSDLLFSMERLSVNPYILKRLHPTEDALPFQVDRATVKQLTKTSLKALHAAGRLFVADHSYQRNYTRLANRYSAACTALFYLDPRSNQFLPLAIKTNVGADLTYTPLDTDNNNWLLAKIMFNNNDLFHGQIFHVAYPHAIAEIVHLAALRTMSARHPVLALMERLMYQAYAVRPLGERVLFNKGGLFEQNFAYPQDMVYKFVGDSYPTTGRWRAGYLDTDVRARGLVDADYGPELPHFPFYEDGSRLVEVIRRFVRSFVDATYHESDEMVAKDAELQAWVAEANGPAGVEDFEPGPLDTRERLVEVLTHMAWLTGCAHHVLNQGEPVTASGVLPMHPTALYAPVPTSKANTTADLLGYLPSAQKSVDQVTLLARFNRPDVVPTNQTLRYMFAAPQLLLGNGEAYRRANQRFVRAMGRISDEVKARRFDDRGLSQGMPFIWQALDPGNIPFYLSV

Take `CC/C=C\C/C=C\C/C=C\CCCCCCCC(=O)O` [αLA, alpha linolenic]: the “O2 electrode, steady-state kinetics” value is “WT MoLOX reacts nearly twice as fast with αLA as with LA”.
